Test [1] deals with HCT-116. Put plainly: Antiproliferative activity against human HCT-116 cells incubated for 48 hrs by MTS assay. In kind it is functional, cell-based. Conditions: HCT-116, 48 h. In general terms: Tetrazolium dyes change colour on reduction, which living cells bring about.
In a further test the test system is RKO. Briefly: Antiproliferative activity against human RKO cells incubated for 48 hrs by MTS assay. In kind it is functional, cell-based.
Test [2] concerns HCT-116. Put plainly: Antitumor activity against human HCT-116 cells xenografted in BALB/c mouse assessed as inhibition of tumor growth at 20 mg/kg, ip administered for 2 weeks. In kind it is functional, organism-based. In general terms: Xenograft models place foreign cells or tissue in a host animal.

The source made the active and inactive calls. No cut-off for these calls is given here.

One may read the IC50 as the concentration that inhibits the measured activity by half. As for `COc1cc2c(c(O)c1C(=O)/C=C/c1cn(C)c3ccccc13)C=CC(C)(C)O2`, the IC50 in the test on HCT-116 [1] and with RKO was more than 200 µM in each case.

Take `CCOc1ccc(Br)cc1/C=C/C(=O)c1c(OC)cc2c(c1O)C=CC(C)(C)O2`: the IC50 in the test with HCT-116 [1] is 117 µM; with RKO, 165 µM.

`COc1cc2c(c(O)c1C(=O)/C=C/c1ccc(N(C)C)cc1)C=CC(C)(C)O2`: the IC50 in the test on HCT-116 [1] is more than 200 µM; in the test with RKO it was 118 µM.

For the compound `COc1cc2c(c(OC)c1C(=O)/C=C/c1ccccc1)C=CC(C)(C)O2`, the half-maximal inhibitory concentration (IC50) is 22.7 µM in the test with HCT-116 [1] and 20.4 µM in the test with RKO.

With `COc1cc2c(c(O)c1C(=O)/C=C/c1cccc(Br)c1)C=CC(C)(C)O2`, the concentration for half-maximal inhibition (IC50) in the test with HCT-116 [1] is 36.7 µM; with RKO it was 35.9 µM.

Consider `COc1cc2c(c(O)c1C(=O)/C=C/c1ccc(N3CCCCC3)cc1)C=CC(C)(C)O2`, for which the IC50 in the test on HCT-116 [1] was 200 µM; in the test with RKO, more than 200 µM.

Take `COc1cc(O)ccc1/C=C/C(=O)c1c(OC)cc2c(c1O)C=CC(C)(C)O2`: the half-inhibitory concentration (IC50) turned out to be 32.1 µM in the test with HCT-116 [1] and 28.4 µM with RKO.

With `COc1cc2c(c(O)c1C(=O)/C=C/c1ccc(Cl)cc1)C=CC(C)(C)O2`, the IC50 in the test on HCT-116 [1] was 26.1 µM; in the test with RKO it was 26.2 µM.

Regarding `COc1cc2c(c(O)c1C(=O)/C=C/c1ccc(O)cc1)C=CC(C)(C)O2` [XANTHOHUMOL C], the concentration for half-maximal inhibition (IC50) is 25.9 µM in the test on HCT-116 [1] and 28.5 µM with RKO.

On to `COc1cc2c(c(O)c1C(=O)/C=C/c1ccccc1Br)C=CC(C)(C)O2`, for which the IC50 with HCT-116 [1] was determined as 20.5 µM; in the test with RKO, 23.1 µM.

With `COc1cc2c(c(O)c1C(=O)/C=C/c1ccc3[nH]ccc3c1)C=CC(C)(C)O2`, the IC50 in the test with HCT-116 [1] was more than 22.4 µM; in the test with RKO it was 19.2 µM.

Take `COc1cc2c(c(O)c1C(=O)/C=C/c1ccc(Br)cc1)C=CC(C)(C)O2`: the IC50 with HCT-116 [1] is 154 µM; with RKO, 157 µM.

Consider `COc1cc2c(c(O)c1C(=O)/C=C/c1cccc(C(C)(C)C)c1)C=CC(C)(C)O2`, for which the figures for the concentration for half-maximal inhibition (IC50) in the test on HCT-116 [1] and in the test on RKO were 74.2 µM and 89.8 µM, respectively.

As to `COc1cc2c(c(OC)c1C(=O)/C=C/c1ccc(Cl)cc1)C=CC(C)(C)O2`, the half-inhibitory concentration (IC50) with HCT-116 [1] was more than 12.7 µM; in the test with RKO, 9.04 µM.

Regarding `COc1cc2c(c(O)c1C(=O)/C=C/c1cccc(N3CCN(C)CC3)c1)C=CC(C)(C)O2`, the IC50 is 12.5 µM in the test on HCT-116 [1] and 128 µM in the test with RKO.

For `COc1cc2c(c(O)c1C(=O)/C=C/c1ccc(C(C)C)cc1)C=CC(C)(C)O2`, the half-maximal inhibitory concentration (IC50) in the test on HCT-116 [1] is 79.1 µM; in the test on RKO, 69.5 µM.

For the compound `COc1cc2c(c(O)c1C(=O)/C=C/c1ccccc1)C=CC(C)(C)O2`, the IC50 turned out to be 24.9 µM in the test with HCT-116 [1] and 23.6 µM with RKO.

With `COc1cc2c(c(O)c1C(=O)/C=C/c1ccc(N3CCCC3)cc1)C=CC(C)(C)O2`, the half-inhibitory concentration (IC50) with HCT-116 [1] and in the test on RKO was more than 200 µM each time.

Regarding `COc1cc2c(c(OC)c1C(=O)/C=C/c1ccc(O)cc1)C=CC(C)(C)O2`, the concentration for half-maximal inhibition (IC50) with HCT-116 [1] is 46.4 µM; in the test with RKO, 25.6 µM.

Turning to `COc1cc(/C=C/C(=O)c2c(OC)cc3c(c2O)C=CC(C)(C)O3)cc(OC)c1OC`, the values for the IC50 in the test with HCT-116 [1] and in the test with RKO were 25.4 µM and 21.5 µM, respectively.

With `COc1cc2c(c(O)c1C(=O)/C=C/c1ccc(N3CCN(C)CC3)cc1)C=CC(C)(C)O2`, the IC50 in the test with HCT-116 [1] was determined as 12.5 µM; with RKO, 13.5 µM.

As for `COc1cccc(/C=C/C(=O)c2c(OC)cc3c(c2O)C=CC(C)(C)O3)c1`, the IC50 in the test on HCT-116 [1] was found to be 25.1 µM; in the test on RKO, 24.4 µM.

With `CCN(CC)c1ccc(/C=C/C(=O)c2c(OC)cc3c(c2O)C=CC(C)(C)O3)cc1`, the 50% inhibitory concentration (IC50) in the test on HCT-116 [1] and with RKO was more than 200 µM each time.

Turning to `COc1ccc(/C=C/C(=O)c2c(OC)cc3c(c2O)C=CC(C)(C)O3)c(OC)c1OC`, the figures for the IC50 in the test with HCT-116 [1] and in the test on RKO were 26.3 µM and 23.2 µM, respectively.

For the compound `COc1cccc(/C=C/C(=O)c2c(OC)cc3c(c2O)C=CC(C)(C)O3)c1OC`, the IC50 was determined as 23.1 µM with HCT-116 [1] and 13.9 µM in the test on RKO.

Turning to `COc1ccc(/C=C/C(=O)c2c(OC)cc3c(c2O)C=CC(C)(C)O3)cc1O`, the half-inhibitory concentration (IC50) was 25 µM with HCT-116 [1] and 18.3 µM in the test on RKO.

For the compound `COc1cc(/C=C/C(=O)c2c(OC)cc3c(c2O)C=CC(C)(C)O3)ccc1O`, the IC50 in the test on HCT-116 [1] turned out to be 24.8 µM; in the test on RKO, 17.6 µM.

Consider `COc1cc2c(c(O)c1C(=O)/C=C/c1ccccc1O)C=CC(C)(C)O2`, for which the IC50 in the test with HCT-116 [1] turned out to be 12.9 µM; with RKO it was 10.9 µM.

`O=c1[nH]cc(F)c(=O)[nH]1`: the result in the test on HCT-116 [2] was Active.

`COc1cc(/C=C/C(=O)c2c(OC)cc3c(c2O)C=CC(C)(C)O3)cc(OC)c1O`: the figures for the concentration for half-maximal inhibition (IC50) in the test on HCT-116 [1] and with RKO were 39.4 µM and 25.6 µM, respectively.

Turning to `COc1cc(/C=C/C(=O)c2c(OC)cc3c(c2O)C=CC(C)(C)O3)cc(OC)c1`, the values for the IC50 in the test on HCT-116 [1] and with RKO were 24.9 µM and 25.1 µM, respectively.

`COc1ccc(/C=C/C(=O)c2c(OC)cc3c(c2O)C=CC(C)(C)O3)cc1Br`: the IC50 is 44.6 µM in the test on HCT-116 [1] and 35.6 µM in the test with RKO.

Regarding `COc1cc2c(c(O)c1C(=O)/C=C/c1ccc(O)c(Br)c1)C=CC(C)(C)O2`, the half-inhibitory concentration (IC50) with HCT-116 [1] amounted to 24.6 µM; in the test on RKO, 21.1 µM.

Turning to `COc1cc2c(c(O)c1C(=O)/C=C/c1cccc(OCc3ccccc3)c1)C=CC(C)(C)O2`, the IC50 with HCT-116 [1] turned out to be 189 µM; in the test on RKO, 149 µM.

As for `COc1cc2c(c(O)c1C(=O)/C=C/c1ccc(C(F)(F)F)cc1)C=CC(C)(C)O2`, the IC50 with HCT-116 [1] came to 26.2 µM; in the test on RKO, 25.4 µM.

For `COc1cc2c(c(O)c1C(=O)/C=C/c1ccc([N+](=O)[O-])cc1)C=CC(C)(C)O2`, the IC50 came out at 163 µM in the test with HCT-116 [1] and 133 µM with RKO.

For the origin of these results see ChEMBL document CHEMBL6078725, “Discovery of novel xanthohumol C derivatives regulating XRCC2 transcription and expression for the treatment of colorectal cancer” (Bioorg Med Chem, 2025).
